From patent publication US7604982B2, “High-throughput screening method for intergrin antagonist and new peptide screened therefrom” (Proteogen Inc., priority 2003, dated 2009)
Residues, ends and D or L forms follow the SMILES beside them.

Assays:
[1] = tested on: human malignant melanoma; conditions: cited from earlier work
[2] = biological target: T1, integrin αvβ3-vitronectin interaction (Homo sapiens, UniProt P05106+P06756); test: Competitive inhibition of integrin αvβ3-vitronectin interaction on integrin microarray (ProteoChip); type: binding; conditions: for IC50: half-maximal inhibition concentration relative to control without peptides, ND means no activity was detected; for inhibition of integrin αvβ3-vitronectin interaction (relative fluorescence intensity): vitronectin 100 ng/ml labeled with Cy-3, colour scale white highest, blue lowest
T1 construct: purchased Chemicon International, Inc. (CA, USA)
Source text: ProteoChip™ (Proteogen, Inc., Seoul, South Korea) was used as a protein chip and integrins were spotted on the ProteoChip™ (Proteogen, Inc., Seoul, South Korea) with the microarrayer (CM-1000; Proteogen, Inc., Seoul, South Korea) to fabricate integrin receptor microarray (See Lee, Y. S. et al.: ProteoChip: a highly sensitive protein microarray proposed by a novel method of protein immobilization for application of protein-protein interaction studies, Proteomics 2003; 3: 2289-2304). Integrin α11bβ3 was purified to homogeneity by GRGDSPK-Sepharose column chromatography from the platelet (See Kang I. C. and Kim D. S., Analysis of potent glycoprotein IIb-IIIa antagonist from natural sources. J Biochem Mol Biol 1998; 31: 515-518), and Integrin αvβ3 was commercially obtained from Chemicon International, Inc. (CA, USA).
Integrins (40 μg/mL) diluted with a phosphate-buffered saline (PBS) solution containing 10 mM β-octylthioglucopyranoside, 1.0 mM CaCl2, 11.0 mM MgCl2, and 30% glycerol were spotted and incubated at 37° C. for 3 hours, and then the remaining integrins after binding were washed with 0.5% PBST (PBS containing 0.5% Tween-20). The prepared integrin microarray was stored at 4° C. until before use. This integrin microarray (integrin-binding protein chip) was used for high-throughput screening of integrin receptor antagonist (See FIG. 1).
Mixtures of ligand protein (vitronectin 100 ng/ml) labeled with fluorescence (Cy-3) and known integrin antagonists such as disintegrins (echistatin 250 μg/ml, flavoridin 250 μg/ml, kistrin 250 μg/ml, and salmosin 2.6 ng/ml), a monoclonal antibody (mAb) against integrin 11.0 mg/ml, and various concentrations of synthetic RGD peptides (echistatin, flavoridin, kistrin: Sigma-Aldrich, USA; Salmosin: isolated and purified from recombinant E. Coli; monoclonal antibody against integrin: Chemicon International, Inc., USA; synthetic ROD peptides: synthesized in the Korea Research Institute of Bioscience and Biotechnology, South Korea) were dropped on the integrin receptor of the integrin αvβ3-binding protein chip prepared in Example 1 by using micropipette or microarrayer (CM-1000; Proteogen, Inc., Seoul, South Korea) and then were reacted in a oven of 37° C. and over 75% humidity for 4-12 hours. After reaction, those were washed for about 10 minutes with 0.5% PBST containing 3% BSA. Competitive inhibitory abilities of antagonists were measured by analyzing the degree of ligand binding as relative fluorescence intensity with a fluorescence scanner.
Antagonists used in FIG. 4 are already known as antagonistic material of integrin αvβ3-vitronectin. This is also a result analyzing whether mixing antagonists and vitronectin labeled with fluorescence inhibit or not the interaction between integrin αvβ3 and vitronectin. Control are the group having only vitronectin labeled with fluorescence without antagonists and the other groups are the results performed with antagonists and peptides including the amino acid sequence of RGE. The fluorescence intensity in FIG. 4 is expressed as rainbow colors like the explanation of FIG. 3. […] However, in case of groups having antagonists, antagonists inhibited the interaction between integrin αvβ3 and vitronectin, that is, integrin αvβ3 didn't bind to vitronectin, which made the color of fluorescence blue, the lowest color.
Mixtures of ligand protein (Fibrinogen 100 ng/ml and vitronectin 100 ng/ml) labeled with fluorescence (Cy-3) and 114 peptide pools from peptide library were dropped on the integrin receptor of integrin αvβ3-binding protein chip prepared in Example 1 by using micropipette or microarrayer (CM-1000; Proteogen, Inc., Seoul, South Korea) and then were reacted in oven of 37° C. and over 75% humidity for 4-12 hours. After reaction, those were washed for about 10 minutes with 0.5% PBST containing 3% BSA. […]

[3] = tested on: human umverical vein endothelial cell (HUVEC); test: HUVEC migration assay (Boyden chamber, bFGF chemoattractant); type: cell-based; conditions: bFGF-induced, 4 hours at 37° C., FIG. 9
Description: HUVE cell was cultured in M199 medium containing 10% fetal calf serum and 3 ng/ml bFGF. This cell was cultured in the control medium (M199 containing 0.1% BSA) for 16 hours to be used in migration assay, and then 3×10^4 cells were added to upper chamber of porous membrane coated with gelatin (40 μM) and inserted in Boyden chamber. Samples were treated at the same time in a concentration-dependent manner. Chemoattractant, bFGF, was added in the bottom chamber to induce HUVE cell to migrate into lower chamber. The chamber was incubated for 4 hours at 37° C. and then the membrane was removed. After fixation, cell was stained with crystal violet and cells migrating across the membrane were counted with a microscope.

[4] = tested on: angiogenesis in chick chorioallantoic membrane; test: Inhibition assay of angiogenesis in a chick chorioallantoic membrane; type: in vivo; conditions: in the presence of bFGF, FIG. 10
Description: FIG. 10 is the result of analyzing effects of antagonistic peptides of integrin αvβ3 on angiogenesis in a chick chorioallantoic membrane. In vivo angiogenesis inhibition test was performed as one of biological characterization researches of the antagonistic peptides. A, positive control, is the result of the group treated with only bFGF without peptide; B, negative control, is the result of the group having only cells without bFGF; C is the result of the group treated with GRGDSP peptide in the presence of bFGF; D is the result of the group treated with HGDVHK peptide in the presence of bFGF; E is the result of the group treated with HSDVHK peptide in the presence of bFGF; and F is the result of the group treated with HHDVHK peptide in the presence of bFGF.
Fertilized eggs was purchased from Pulmuone Corp. (South Korea), Thermanox coverslips for sample loading was purchased from Nunc Company (USA), and 10% Intralipose (fat emulsion) for observation and syringes were purchased from Green Cross Company (South Korea).
On day 1 (0-day embryo): Fertilized egg was incubated in a incubator of 37-38° C. and over 90% humidity. The temperature and humidity were often checked to make sure the above conditions.
On day 3 (2-day embryo): The peaked end of fertilized egg was cracked with a knife. […] The pore was sealed with transparent tape to block infection and dryness of the fertilized egg. The egg was incubated again with the direction of pore toward the bottom.
On day 4 (3-day embryo): The window which diameter is 2-3 cm was made in the direction of air sac of fertilized egg (in the opposite direction of the above syringe pore) and the eggs confirmed as fertilized egg were sealed with broad transparent tape and incubated again. For reference, round window was made as follows. A round shape of scratch was made on the eggshell with a sharp knife and eggshell then was taken away with a pincette.
On day 5 (4.5-day embryo): CAM is usually created at this time and the diameter is about 2-5 mm. […]

[5] = tested on: Lewis lung carcinomas cells; test: Growth inhibition assay of subcutaneous solid tumor; type: in vivo, C57BL/6 mice; conditions: 100 mg/kg mouse, subcutaneous injection once daily, FIGS. 11-13
Description: Lewis lung carcinomas cells (1×10^6) were injected subcutaneously into dorsal midline of C57BL/6 mice. When tumors were 100-200 mm^3 in volume, the mice were randomized into three groups. Two groups received HGDVHK or HSDVHK (100 mg/kg mouse), respectively, in PBS via subcutaneous injection at a site distant from the tumor once daily. […] The sizes of the tumors in all groups were measured at the same time everyday. The experiments were terminated when the control mice began to die.

[6] = tested on: blood endothelial alpha(5) and alpha(v)-integrin; conditions: endothelial cell migration; cited from earlier work

Row | Molecule | IC50 [2] | inhibition of integrin αvβ3-vitronectin interaction (relative fluorescence intensity) [2] | inhibition of HUVEC migration [3] | inhibitory effect on CAM angiogenesis [4] | also measured
1 | CC(C)[C@H]1C(=O)N[C@@H](CCCN=C(N)N)C(=O)NCC(=O)N[C@@H](CC(=O)O)C(=O)N[C@H](Cc2ccccc2)C(=O)N1C [EMD121974] |  |  |  |  | angiogenesis inhibition and cancer growth suppression in animal test [1]: activity inhibiting angiogenesis and thus suppressing cancer growth
2 | CC(C)C[C@H](NC(=O)[C@H](CC(=O)O)NC(=O)CNC(=O)[C@@H](N)Cc1c[nH]cn1)C(=O)N[C@@H](Cc1c[nH]cn1)C(=O)N[C@@H](CCCCN)C(N)=O [HGDLHK-NH2] (H-HGDLHK-NH2; N-terminus assumed) | 0.0436 nM |  |  |  | 
3 | CC(C)[C@H](NC(=O)[C@H](CC(=O)O)NC(=O)CNC(=O)[C@@H](N)Cc1c[nH]cn1)C(=O)N[C@@H](Cc1c[nH]cn1)C(=O)N[C@@H](CCCCN)C(N)=O [HGDVHK-NH2] (H-HGDVHK-NH2; N-terminus assumed) | 0.0647 nM | stronger inhibitory activity in integrin αvβ3-specific inhibitory test than GRGDSP | significantly inhibited | showed different inhibitory effects | 
4 | HHDVHK [HHDVHK-NH2] |  | didn't reveal any inhibitory activity | had little effect | had little effect | 
5 | recombinant human endostatin: recombinant human endostatin interacting with endothelial alpha(5) and alpha(v)-integrin (protein, UniProt P39060 1572-1754, looked up, Endostatin) Endostatin: HSHRDFQPVLHLVALNSPLSGGMRGIRGADFQCFQQARAVGLAGTFRAFLSSRLQDLYSIVRRADRAAVPIVNLKDELLFPSWEALFSGSEGPLKPGARIFSFDGKDVLRHPTWPQKSVWHGSDPNGRRLTESYCETWRTEAPSATGQASSLLGGRLLGQSAASCHHAYIVLCIENSFMTASK |  |  |  |  | inhibition of integrin-dependent endothelial function [6]: inhibit integrin-dependent endothelial function such as endothelial cell migration

Now from value to molecule, other results behind:

Row | IC50 [2] | Molecule | inhibition of integrin αvβ3-vitronectin interaction (relative fluorescence intensity) [2] | inhibition of HUVEC migration [3] | inhibitory effect on CAM angiogenesis [4] | also measured
6 | 0.00353 nM | CC(C)C[C@H](NC(=O)CNC(=O)[C@@H](N)Cc1c[nH]cn1)C(=O)N[C@H](C(=O)N[C@@H](Cc1c[nH]cn1)C(=O)N[C@@H](CCCCN)C(N)=O)C(C)C [HGLVHK-NH2] (H-HGLVHK-NH2; N-terminus assumed) |  |  |  | 
7 | 0.00434 nM | CC(C)C[C@H](NC(=O)[C@H](CC(C)C)NC(=O)[C@H](Cc1c[nH]cn1)NC(=O)[C@@H](N)Cc1c[nH]cn1)C(=O)N[C@@H](Cc1c[nH]cn1)C(=O)N[C@@H](CCCCN)C(N)=O [HHLLHK-NH2] (H-HHLLHK-NH2; N-terminus assumed) |  |  |  | 
8 | 0.407 nM | CC(C)C[C@H](NC(=O)[C@H](Cc1c[nH]cn1)NC(=O)[C@@H](N)Cc1c[nH]cn1)C(=O)N[C@H](C(=O)N[C@@H](Cc1c[nH]cn1)C(=O)N[C@@H](CCCCN)C(N)=O)C(C)C [HHLVHK-NH2] (H-HHLVHK-NH2; N-terminus assumed) |  |  |  | 
9 | 0.00241 nM | CC(C)[C@H](NC(=O)[C@H](CC(=O)O)NC(=O)[C@H](CO)NC(=O)[C@@H](N)Cc1c[nH]cn1)C(=O)N[C@@H](Cc1c[nH]cn1)C(=O)N[C@@H](CCCCN)C(N)=O [HSDVHK-NH2] (H-HSDVHK-NH2; N-terminus assumed) | stronger inhibitory activity in integrin αvβ3-specific inhibitory test than GRGDSP | significantly inhibited | showed different inhibitory effects | growth of solid tumor [5]: largely suppressed
10 | 0.064 nM | CC(C)C[C@H](NC(=O)[C@H](CO)NC(=O)[C@@H](N)Cc1c[nH]cn1)C(=O)N[C@H](C(=O)N[C@@H](Cc1c[nH]cn1)C(=O)N[C@@H](CCCCN)C(N)=O)C(C)C [HSLVHK-NH2] (H-HSLVHK-NH2; N-terminus assumed) |  |  |  | 
